Experimental data taken from ChEMBL document CHEMBL2150877, “γ-Secretase modulators as potential disease modifying anti-Alzheimer's drugs” (J Med Chem, 2011).
pIC50: −log10 of the molar value.

Assay: Inhibition of gamma secretase assessed as reduction in Abeta42 production

pIC50	Structure (SMILES)
6.13	CC(C)CC(C(=O)O)c1cc(Cc2cc(F)cc(F)c2)cc(-c2ccc(C(F)(F)F)cc2)c1 (centres undefined)
7.15	COc1cc(/C=C/C(=O)NCc2cccc(-c3ccccc3)c2)ccc1-n1cnc(C)c1
8.30	COc1cc(/C=C2\OC(C)(C)CN([C@H](c3cc(F)c(F)c(F)c3)[C@@H](C)O)C2=O)ccc1-n1cnc(C)c1
7.66	COc1cc(Nc2nc3c(c(COC4CCCC4)n2)COCC3)ccc1-n1cnc(C)c1
7.22	COCCN(Cc1cccc2ccccc12)C(=O)/C=C/c1ccc(-n2cnc(C)c2)c(OC)c1
7.16	CC(C)CC(C(=O)O)c1cc(Cl)c(OCC2CC2)c(-c2ccc(C(F)(F)F)cc2)c1 (centres undefined)
6.96	CC(C)CCN1C(c2cc(-c3ccc(C(F)(F)F)cc3)cc(C(CC(C)C)C(=O)O)c2)CCCC1C(F)(F)F (centres undefined)
7.43	COc1nc(/C=C/c2nc3n(n2)CCC[C@@H]3c2ccc(F)cc2)ccc1-n1cnc(C)c1
7.41	COc1cc(Nc2cccc3c2nc(-c2ccc(F)cc2)n3C(C)C)ccc1-c1ccnc(C)c1
8.40	COc1nc(-c2nc3n(n2)CCC[C@@H]3c2cc(N(CC3CC3)CC3CC3)ccc2Cl)ccc1-n1cnc(C)c1
6.89	Cc1cn(-c2ccc(Nc3ncc4c(n3)C(c3ccccc3)CCC4)cc2F)cn1 (centres undefined)
< 6.70	COc1cc(C2=NOC3(CCCN(C(C)c4ccc(F)cc4)C3=O)C2)ccc1-n1cnc(C)c1 (centres undefined)
6.27	COc1cc(-c2cn(C3CCc4c(F)cccc4N(CC(F)(F)F)C3=O)nn2)ccc1Oc1cccnc1 (centres undefined)
6.66	CC(C)CCN(Cc1ccc(C(F)(F)F)cc1)Cc1cc(-c2ccc(C(F)(F)F)cc2)cc(C(CC(C)C)C(=O)O)c1 (centres undefined)
6.25	COc1cc(NC(=O)C(C)c2cccc(F)n2)ccc1-c1ccnc(C)c1 (centres undefined)
8.22	COc1nc(-c2nc3n(n2)CCC[C@@H]3c2cc(N(CC3CC3)CC(F)(F)F)ccc2Cl)ccc1-n1cnc(C)c1
6.77	COc1cc(/C=C2\CCCn3c(-c4ccc(F)cc4)cnc32)ccc1-n1cnc(C)c1
7.92	COCc1cc(F)ccc1[C@H]1CCCn2nc(/C=C/c3ccc(-n4cnc(C)c4)c(OC)c3)nc21
6.42	COc1cc(Nc2nc(C)cc(Oc3ccc(Cl)cc3)n2)ccc1-n1cnc(C)c1
6.82	CC(C)CC(C(=O)O)c1cc(/C=C/c2ccc(-c3ccccc3)cc2)cc(-c2ccc(Cl)c(C(F)(F)F)c2)c1 (centres undefined)

Continued, compound first:

Structure (SMILES)	pIC50
COc1cc(/C=C2\CC[C@H]3CCC[C@@H](c4cc(F)c(F)c(F)c4)N3C2=O)ccc1-n1cnc(C)c1	7.48
CC(C)c1cc(C(C)C)c(S(=O)(=O)n2c3ccccc3c3ccc(OCC(=O)O)cc32)c(C(C)C)c1	5.12
CC(C)CC(C(=O)O)c1cc(CCc2cc(F)cc(F)c2)cc(-c2ccc(C(F)(F)F)cc2)c1 (centres undefined)	6.39
CC(C)CC(C(=O)O)c1cc(Oc2cc(F)cc(F)c2)cc(-c2ccc(C(F)(F)F)cc2)c1 (centres undefined)	6.11
COc1cc(-c2cn(CC(=O)N(CC(F)(F)F)c3ccc(F)c(Cl)c3)nn2)ccc1-n1cnc(C)c1	7.08
CC(C)CC(C(=O)O)c1cc(CCc2ccc(-c3ccccc3)cc2)cc(-c2ccc(Cl)c(C(F)(F)F)c2)c1 (centres undefined)	6.68
COc1cc(/C=C/c2nc3n(n2)CCC[C@@H]3c2ccc(F)cc2)ccc1-n1cnc(C)c1	7.85
COc1cc(-c2cn(C3CCc4ccccc4N(CC(F)(F)F)C3=O)nn2)ccc1-c1ccncc1 (centres undefined)	7.10
CC(C)CCN(Cc1cc(-c2ccc(C(F)(F)F)cc2)cc(C(CC(C)C)C(=O)O)c1)c1ccc(C(F)(F)F)cc1 (centres undefined)	6.60
CC(C)CC(C(=O)O)c1cc(-c2ccc(C(F)(F)F)cc2)cc(C2CCCC(C(F)(F)F)N2Cc2ccc(C(F)(F)F)cc2)c1 (centres undefined)	6.51
COc1cc(Nc2nc(C)cc(Nc3ccc(Cl)cc3)n2)ccc1-n1cnc(C)c1	7.15
CCCC1CCCCN1c1cc(-c2ccc(C(F)(F)F)cc2)cc(C(CC(C)C)C(=O)O)c1 (centres undefined)	6.37
COc1cc(-c2cn(C3CCc4c(F)cccc4N(CC(F)(F)F)C3=O)nn2)ccc1Nc1cccnc1 (centres undefined)	6.65
CC(C)CCN1CC(c2cc(-c3ccc(C(F)(F)F)cc3)cc(C(CC(C)C)C(=O)O)c2)CCC1C(F)(F)F (centres undefined)	6.43
CC(C)CC(C(=O)O)c1cc(-c2ccc(C(F)(F)F)cc2)cc(N2CCC(C(F)(F)F)CC2)c1 (centres undefined)	6.36
COc1cc(-c2cn([C@@H]3CCc4c(C)cc(C)cc4N(CC(F)(F)F)C3=O)nn2)ccc1-n1cnc(C)c1	7.68
CC(C)CC(C(=O)O)c1cc(-c2ccc(C(F)(F)F)cc2)cc(-c2cc(C(F)(F)F)cc(C(F)(F)F)c2)c1 (racemic)	7.10
COc1cc(NC(=O)C(C)N2CCc3ccc(Br)cc3C2)ccc1-c1ccnc(C)c1 (centres undefined)	6.74
N#Cc1cc(Nc2nc3n(n2)CCCC3c2ccc(F)cc2)ccc1-n1cnc(Cl)c1 (centres undefined)	6.96
COc1cc(Nc2ccnn(Cc3ccc(F)cc3)c2=O)ccc1-n1cnc(C)c1	6.46
COc1cc(Nc2cccc3c2nc(-c2ccc(F)cc2)n3C)ccc1-n1cnc(C)c1	7.68
COc1cc(/C=C/C(=O)NC2CCc3ccccc3C2)ccc1-n1cnc(C)c1 (centres undefined)	7.22

Structure (SMILES)	pIC50
COc1cc(-c2cn(C(F)(F)c3ccc(C(F)(F)F)cc3)nn2)ccc1-n1cnc(C)c1	5.65
COc1cc(C2CC23CCCN(C(C)c2ccc(F)cc2)C3=O)ccc1-n1cnc(C)c1 (centres undefined)	< 6.70
CC(C)CC(C(=O)O)c1cc(Cl)c(OCC2CC2)c(-c2ccc3nonc3c2)c1 (centres undefined)	6.56
COc1nc(/C=C/c2nc3n(n2)CCC[C@H]3c2ccccc2C(F)(F)F)ccc1-n1cnc(C)c1 [E-2212]	7.77
COc1cc(/C=C/c2nc(-c3ccccc3)cn2C)ccc1-n1cnc(C)c1	7.74
CC(C)CC(C(=O)O)c1cc(C#N)c(OCC2CC2)c(-c2ccc(C(F)(F)F)cc2)c1 (centres undefined)	6.56
COc1cc(Nc2ncc3c(n2)C(c2ccccc2)CCC3)ccc1-c1cnn(C)c1 (centres undefined)	6.62
CC(C)CC(C(=O)O)c1cc(-c2ccc(C(F)(F)F)cc2)cc(C2CCCC(C(F)(F)F)N2C)c1 (centres undefined)	6.38
COc1cc(/C=C/c2nc3n(n2)CCC[C@@H]3c2ccc(C(F)(F)F)cc2)ccc1-n1cnc(C)c1	7.51
COc1cc(/C=C/c2nc3n(n2)CCC[C@@H]3c2ccccc2)ccc1-n1cnc(C)c1	7.96
CSc1ccc(/C=C2/C(C)=C(CC(=O)O)c3cc(F)ccc32)cc1 [SULINDAC SULFIDE]	4.47
CC(C)CC[C@H](c1ccc(C(F)(F)F)cc1)N1CC[C@@H](CC(=O)O)C(F)(F)[C@H]1c1ccc(C(F)(F)F)cc1	6.15
COc1cc(Nc2ncc3c(n2)C(c2ccccc2)CCC3)ccc1-n1cnc(C)c1 (centres undefined)	6.08
COc1cc(Nc2nc(C)c(Cc3cccc(Cl)c3)s2)ccc1-n1cnc(C)c1	6.68
COc1cc(/C=C/c2nc3n(n2)CCC[C@@H]3c2cc(F)c(F)c(F)c2)ccc1-n1cnc(C)c1	7.85
CC(C)CC(C(=O)O)c1cc(/C=C/c2cc(F)cc(F)c2)cc(-c2ccc(C(F)(F)F)cc2)c1 (centres undefined)	6.35
COc1cc(C(=O)c2c(OC)cnn(C(C)c3ccccc3)c2=O)ccc1-n1cnc(C)c1 (centres undefined)	5.60
COc1ccccc1NC(=O)Nc1ccc(-c2ccnc(C)c2)c(OC)c1	5.48
COc1cc(C)c(Nc2nc(-c3ccc(-n4cnc(C)c4)c(OC)n3)n[nH]2)cc1C(C)C	8.10
COc1cc(/C=C2\CCCN(Cc3cccc(F)c3)C2=O)ccc1-n1cnc(C)c1	6.70
COc1cc(NC(=O)NC(C)Cc2ccc(F)cc2)ccc1-c1ccnc(C)c1 (centres undefined)	6.88
COc1nc(/C=C/c2nc3n(n2)CCC[C@@H]3c2cc(F)c(F)c(F)c2)ccc1-n1cnc(C)c1	7.66
